Results taken from patent publication US10800784B2, “Nitrogen-containing heterocyclic amide compound and pharmaceutical use thereof” (Japan Tobacco Inc., priority 2018, dated 2020).

How the values were obtained:
human PDHK2 (hPDHK2) = human PDHK2 (hPDHK2) (Homo sapiens (Human), UniProt Q15119); assay: Inhibitory action of PDHK2 activity in vitro (residual PDH activity after PDHK reaction); type: biochemical; details: PDH/hPDHK2 complex solution, PDHK reaction at room temperature for 45 min, NADH absorbance at 340 nm; read-out: kPDK2 IC50
Summary of the method: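 Indirect assay: FLAG-tagged hPDHK2 (0.5 μg/mL) precomplexed overnight at 4 °C with PDH (0.025 U/mL), then kinase reaction with compound and ATP 45 min at room temperature, pH 7.0 MOPS buffer. Residual PDH activity measured after 90 min with pyruvate, CoA, NAD, TPP as NADH absorbance at 340 nm, corrected for compound effect on PDH-only blank.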

human PDHK1 (hPDHK1) = human PDHK1 (hPDHK1) (Homo sapiens (Human), UniProt Q15118); assay: Inhibitory action of PDHK1 activity in vitro (residual PDH activity after PDHK reaction); type: biochemical; details: for IC50: PDH/hPDHK1 complex solution, PDHK reaction at room temperature for 45 min, NADH absorbance at 340 nm, read-out: hPDK1 IC50; for inhibition at 0.003 µM: at 3 nmol/L, shown when IC50 value could not be calculated, read-out: hPDHK1 inhibitory rate at the lowest concentration of the test compound
Sequence of human PDHK1 (hPDHK1) (Q15118 29-436): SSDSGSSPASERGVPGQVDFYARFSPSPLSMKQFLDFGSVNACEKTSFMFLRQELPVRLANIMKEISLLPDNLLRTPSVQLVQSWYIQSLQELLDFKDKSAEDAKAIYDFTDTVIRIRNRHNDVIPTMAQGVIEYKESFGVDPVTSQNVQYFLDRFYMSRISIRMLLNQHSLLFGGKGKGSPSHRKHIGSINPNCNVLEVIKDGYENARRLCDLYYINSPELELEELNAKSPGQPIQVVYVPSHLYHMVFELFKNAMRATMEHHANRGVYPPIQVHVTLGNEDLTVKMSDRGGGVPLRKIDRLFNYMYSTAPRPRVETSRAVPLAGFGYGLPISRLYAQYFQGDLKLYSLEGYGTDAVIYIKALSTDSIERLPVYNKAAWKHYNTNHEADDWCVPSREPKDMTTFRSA
Summary of the method: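 N-FLAG hPDHK1 (E. coli-expressed, 0.5 μg/mL) precomplexed overnight at 4 °C with porcine heart PDH (0.025 U/mL), then reacted 45 min at room temperature with compound and ATP (0.353 μmol/L as added) in MOPS pH 7.0 buffer. Residual PDH activity after 90 min with pyruvate, CoA, NAD, TPP read as NADH at 340 nm.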

Structure (SMILES)	IC50 (human PDHK2 (hPDHK2))	IC50 (human PDHK1 (hPDHK1))	inhibition at 0.003 µM (human PDHK1 (hPDHK1))
C[C@H]1CN(C(=O)[C@H]2NCCc3ccccc32)Cc2onc([C@@](C)(O)C(F)(F)F)c21 [Example 105]	8 nM	9 nM	–
C[C@H]1CN(C(=O)[C@@H]2c3ccccc3CCN2C)Cc2onc([C@@](C)(O)C(F)(F)F)c21 [Example 106]	4 nM	< 3 nM	61%
CC(=O)N1CCc2ccccc2[C@H]1C(=O)N1Cc2onc([C@@](C)(O)C(F)(F)F)c2[C@@H](C)C1 [Example 107]	6 nM	5 nM	–
C[C@H]1CN(C(=O)c2ccnn2C2CC2)Cc2onc([C@@](C)(O)C(F)(F)F)c21 [Example 109]	5 nM	< 3 nM	53%
C[C@H]1CN(C(=O)C(C)(C)c2ccc(C(=O)O)c(C3CC3)c2)Cc2onc([C@@](C)(O)C(F)(F)F)c21 [Example 116]	32 nM	17 nM	–
C[C@H]1CN(C(=O)c2cc(C3(C)CC3)nn2C)Cc2onc([C@@](C)(O)C(F)(F)F)c21 [Example 118]	4 nM	4 nM	–
C[C@H]1CN(C(=O)C(C)(C)c2ccc(-c3nn[nH]n3)cc2)Cc2onc([C@@](C)(O)C(F)(F)F)c21 [Example 120]	9 nM	5 nM	–
C[C@H]1CN(C(=O)c2cc(-c3ccccc3)nn2C)Cc2nnc([C@@](C)(O)C(F)(F)F)n21 [Example 122, ((S)-5-methyl-3-((R)-1,1,1-trifluoro-2-hydroxypropan-2-yl)-5,6-dihydro-[1,2,4]triazolo[4,3-a]pyrazin-7(8H)-yl)(1-methyl-3-phenyl-1H-pyrazol-5-yl)methanone]	7 nM	5 nM	–
C[C@H]1CN(C(=O)c2cc(C3CC3)nn2C)Cc2nnc([C@@](C)(O)C(F)(F)F)n21 [Example 123]	12 nM	6 nM	–

Other lines, results leading:

IC50 (human PDHK2 (hPDHK2))	IC50 (human PDHK1 (hPDHK1))	inhibition at 0.003 µM (human PDHK1 (hPDHK1))	Structure (SMILES)
6 nM	5 nM	–	C[C@H]1CN(C(=O)c2cc(C3CC3)nn2C)Cc2onc([C@@](C)(O)C(F)(F)F)c21 [Example 108]
13 nM	7 nM	–	C[C@H]1CN(C(=O)c2ccn(C3CC3)n2)Cc2onc([C@@](C)(O)C(F)(F)F)c21 [Example 110]
6 nM	3 nM	–	C[C@H]1CN(C(=O)c2cc(C3CC3)n[nH]2)Cc2onc([C@@](C)(O)C(F)(F)F)c21 [Example 111, (3-cyclopropyl-1H-pyrazol-5-yl)((R)-4-methyl-3-((R)-1,1,1-trifluoro-2-hydroxypropan-2-yl)-4,7-dihydroisoxazolo[5,4-c]pyridin-6(5H)-yl)methanone]
5 nM	3 nM	–	C[C@H]1CN(C(=O)c2[nH]nc(C3CC3)c2Cl)Cc2onc([C@@](C)(O)C(F)(F)F)c21 [Example 112]
5 nM	4 nM	–	C[C@H]1CN(C(=O)c2cc(C3CC3)n(C)n2)Cc2onc([C@@](C)(O)C(F)(F)F)c21 [Example 113]
7 nM	5 nM	–	C[C@H]1CN(C(=O)c2cc(C#N)nn2C2CC2)Cc2onc([C@@](C)(O)C(F)(F)F)c21 [Example 114]
8 nM	6 nM	–	C[C@H]1CN(C(=O)c2nnc(C3CC3)o2)Cc2onc([C@@](C)(O)C(F)(F)F)c21 [Example 115]
8 nM	6 nM	–	C[C@H]1CN(C(=O)c2c(C#N)c(C3CC3)nn2C)Cc2onc([C@@](C)(O)C(F)(F)F)c21 [Example 117]
5 nM	4 nM	–	C[C@H]1CN(C(=O)c2cc(C3(C)CC3)n(C)n2)Cc2onc([C@@](C)(O)C(F)(F)F)c21 [Example 119]
5 nM	5 nM	–	C[C@H]1CN(C(=O)c2cn(C)nc2C2CC2)Cc2onc([C@@](C)(O)C(F)(F)F)c21 [Example 121]
